# Literature values, collected in patent US20150208691A1, “NOVEL USE OF ALKOXYLATES OF MONO- AND POLYVALENT ALCOHOLS” (AB AGRI LIMITED, priority 2012, published 2015).
# Where two headings read alike, the source gives them in different places.
# Key:
# [1] = system: methane emissions; conditions: sheep
# [2] = system: methane emissions; conditions: cows, compared with sheep
smiles,measurement,setting,value
C=CCS[S+]([O-])CC=C (centres unmarked) [Allicin],reduction of methane emissions,[1],20%
same,reduction of methane emissions,[2],not as effective
